This note sets out measurements from patent US12606552B2, “Bifunctional compound, preparation method therefor, and use thereof” (SUZHOU KINTOR PHARMACEUTICALS, INC., priority 2020, dated 2026).

Each structure is given as a SMILES string.

In data set [1] the test system is androgenetic alopecia model in C57BL/6J mice. Briefly: Hair regeneration effects on androgenic alopecia C57 mouse model (DHT-induced). In kind it is in vivo, C57BL/6N mice. The note with it: 5% skin smear BID + DHT 30 mpk, AVER n = 6, score 0-5. An excerpt:
Activity Assay Example 8: Hair Regeneration Effects of Compounds on Androgenic Alopecia C57 Mouse Model
The purpose of this study was to compare the effect of the compounds prepared by the present invention as AR protein degraders on hair regrowth in an androgenetic alopecia model in C57BL/6J mice by transdermal application route of administration, and to provide data to support subsequent clinical trials.
2. Experimental Principle
Name of test compound I: dihydrotestosterone DHT; name of test compound II: compound A46 of the present invention; name of test compound III: minoxidil.
4. Experimental animals: strain: C57BL/6N mice; age: 6-7 weeks; gender: male; number of animals: 70 (10 for later use); rearing environment: specific pathogen-free (SPF).
70 mice were deeply anesthetized, and the hair on the back of the mice was removed with an animal shaver, then the depilatory cream (Veet https://item.jd.com/6291245.html) was smeared evenly on the surface of the mice skin, and left 7-10 minutes. Then the hair was gently scraped off with a hair removal scraper against the direction of the hair, and finally the residual hair removal cream on the skin surface was fully washed with water to avoid burning the mice skin.
This experiment was divided into 6 groups, and the DHT administration started on the day of hair removal, A46 is administered on day 2 after hair removal and is counted as day 1 (the day of hair removal is counted as day 0).
5.3 Test Compound Preparation Method
5.4 Observation and Measurement Indicators • 1) Body weight/g: From the first day of administration, body weight was weighed and recorded twice a week. • 2) Hair regeneration (anagen) score (0 points: no darkening of skin color in all areas; 1 point: darkening of gray skin color areas; 2 points: visible short hair; 3 points: thin hair; 4 points: thick hair; 5 points: full hair growth).
All mice were photographed on day 1 after hair removal, and then photographed and scored daily from day 4 until the end of the experiment. • 3) At the end of the experiment, skin and blood collection operations were performed as needed. 5.5 Criteria for Drug Withdrawal and Experiment Termination
Data are presented as average±standard error (AVE±SEM). One-way multi-level analysis of variance was used for statistics. The comparison between each drug group and the model group was performed by Stundent's t-test or rank sum test, and the p value was calculated. p<0.05 means there is a significant difference between the two groups, p<0.01 means there is a extremely significant difference between the two groups.

Data set [2] can be described thus: Pharmacokinetic studies of compounds in mice. In kind it is in vivo. To be noted: male mice, intragastric administration 10 mg/kg, plasma.
Another data set has as its target T1, AR (Homo sapiens, UniProt P10275, T878A).
T1 sequence (P10275 1-920 T878A): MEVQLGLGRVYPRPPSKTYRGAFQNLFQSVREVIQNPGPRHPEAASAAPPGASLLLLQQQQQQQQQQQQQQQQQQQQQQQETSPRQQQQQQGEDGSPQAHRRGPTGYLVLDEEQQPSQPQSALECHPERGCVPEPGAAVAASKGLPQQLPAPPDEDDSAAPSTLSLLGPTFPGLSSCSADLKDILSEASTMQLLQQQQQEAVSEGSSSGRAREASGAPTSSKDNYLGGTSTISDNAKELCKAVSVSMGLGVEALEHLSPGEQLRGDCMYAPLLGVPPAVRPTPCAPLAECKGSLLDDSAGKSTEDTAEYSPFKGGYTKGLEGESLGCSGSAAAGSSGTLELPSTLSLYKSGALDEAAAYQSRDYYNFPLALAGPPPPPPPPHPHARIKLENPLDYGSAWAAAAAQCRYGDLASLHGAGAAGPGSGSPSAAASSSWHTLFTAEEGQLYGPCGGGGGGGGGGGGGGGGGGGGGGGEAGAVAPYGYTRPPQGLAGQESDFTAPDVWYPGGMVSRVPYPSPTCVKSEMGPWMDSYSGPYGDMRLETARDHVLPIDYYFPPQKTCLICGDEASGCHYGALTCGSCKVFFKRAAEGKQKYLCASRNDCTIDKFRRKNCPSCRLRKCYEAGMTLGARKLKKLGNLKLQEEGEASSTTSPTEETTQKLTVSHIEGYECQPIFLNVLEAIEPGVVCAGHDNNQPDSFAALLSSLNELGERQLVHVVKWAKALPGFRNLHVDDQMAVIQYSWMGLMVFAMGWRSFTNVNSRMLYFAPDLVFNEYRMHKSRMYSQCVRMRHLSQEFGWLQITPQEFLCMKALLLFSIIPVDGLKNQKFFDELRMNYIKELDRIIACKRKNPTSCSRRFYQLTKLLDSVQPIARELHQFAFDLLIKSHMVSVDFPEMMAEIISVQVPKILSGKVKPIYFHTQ
Briefly: Effects of compounds on AR expression in LNCaP cells (ELISA, DC50). In kind it is cell-based. Details: Measurement of the Effects of Drugs on the Expression of AR in Cells by ELISA Method; endogenous in cells; host or cells: LNCaP. To be noted: 24 hours of drug treatment, AR by ELISA. The method, boiled down: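 LNCaP cells at about 15,000/well were treated for 24 h with compound at 0.0001–2 μmol/L final. AR in cell lysates was measured by ELISA (OD450). Inhibition was relative to DMSO control after blank subtraction, and DC50 was calculated from it.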

For the compound `Nc1cc(N2CCCCC2)nc(N)[n+]1[O-]` [minoxidil, reference compound], the Hair regeneration score in data set [1] (0 day) is 0.00; in data set [1] (3 days), 0.00; in data set [1] (5 days) it was 0.00; in data set [1] (7 days) it was 0.00; in data set [1] (10 days), 0.33; in data set [1] (12 days), 0.67. Besides, the Hair regeneration score in data set [1] (14 days) is 1.67; in data set [1] (17 days) it was 2.33.

`Cc1ncsc1-c1ccc(CNC(=O)[C@@H]2C[C@@H](O)CN2C(=O)[C@@H](NC(=O)COCCCCOc2ccc(-c3ncc(N4C(=S)N(c5ccc(C#N)c(C(F)(F)F)c5F)C(=O)C4(C)C)cc3C(F)(F)F)cc2F)C(C)(C)C)cc1` [Compound A74]: the “eAUC0.5-2 h” value in data set [2] amounted to 746 ± 158 ng·h/mL. This compound registered a DC50 at AR of 0.0778 µM.

In the case of `CC1(C)C(=O)N(c2ccc(C#N)c(C(F)(F)F)c2F)C(=S)N1c1ccc(-c2ccc(OC3CCN(C(=O)COc4cccc5c4C(=O)N(C4CCC(=O)NC4=O)C5=O)CC3)cc2)nc1` (centres unmarked) [Compound A37], in data set [2], the “eAUC0.5-2 h” value stood at 98 ± 48 ng·h/mL. The DC50 on AR turned out to be 0.0186 µM.

Take `Cc1ncsc1-c1ccc(CNC(=O)[C@@H]2C[C@@H](O)CN2C(=O)[C@@H](NC(=O)COCCCCOc2ccc(-c3ccc(N4C(=S)N(c5ccc(C#N)c(C(F)(F)F)c5F)C(=O)C4(C)C)cn3)cc2C#N)C(C)(C)C)cc1` [Compound A57]: the “eAUC0.5-2 h” value in data set [2] came to 182 ± 84 ng·h/mL. The compound further had a DC50 on AR of 0.0318 µM.

For `CNC(=O)[C@@H]1C[C@@H](O)CN1C(=O)[C@@H](NC(=O)COCCCCOc1ccc(-c2ncc(N3C(=S)N(c4ccc(C#N)c(C(F)(F)F)c4F)C(=O)C3(C)C)cc2F)cc1F)C(C)(C)C` [Compound A137], the “eAUC0.5-2 h” value in data set [2] was 92 ± 34 ng·h/mL. At AR, this compound came in with a DC50 of 0.145 µM.

Take `Cc1ncsc1-c1ccc([C@H](CC(=O)NCCN2CCC(C#Cc3ccc(N4C(=S)N(c5ccc(C#N)c(C(F)(F)F)c5F)C(=O)C4(C)C)cc3)CC2)NC(=O)[C@@H]2C[C@@H](O)CN2C(=O)[C@@H](NC(=O)C2(F)CC2)C(C)(C)C)cc1` [Compound A139]: in data set [2], the “eAUC0.5-2 h” value was found to be 53 ± 30 ng·h/mL. The compound also yielded a DC50 at AR of 0.225 µM.

Turning to `Cc1ncsc1-c1ccc(CNC(=O)[C@@H]2C[C@@H](O)CN2C(=O)[C@@H](NC(=O)COCCOc2ccc(-c3ccc(N4C(=S)N(c5ccc(C#N)c(C(F)(F)F)c5F)C(=O)C4(C)C)cn3)cc2)C(C)(C)C)cc1` [Compound A71], the “eAUC0.5-2 h” value in data set [2] amounted to 287 ± 135 ng·h/mL. Further, the DC50 at AR is 0.0621 µM.

In the case of `Cc1ncsc1-c1ccc(CNC(=O)[C@@H]2C[C@@H](O)CN2C(=O)[C@@H](NC(=O)COCCCCOc2ccc(-c3ncc(N4C(=S)N(c5ccc(C#N)c(C(F)(F)F)c5F)C(=O)C4(C)C)cn3)cc2F)C(C)(C)C)cc1` [Compound A111], the “eAUC0.5-2 h” value in data set [2] came out at 297 ± 78 ng·h/mL. This compound also had a DC50 on AR of 0.0462 µM.

Regarding `Cc1ncsc1-c1ccc([C@H](CC(=O)N2CCC(Oc3ccc(-c4ncc(N5C(=S)N(c6ccc(C#N)c(C(F)(F)F)c6F)C(=O)C5(C)C)cc4F)cc3F)CC2)NC(=O)[C@@H]2C[C@@H](O)CN2C(=O)[C@@H](NC(=O)C2(F)CC2)C(C)(C)C)cc1` [Compound A136], the “eAUC0.5-2 h” value in data set [2] turned out to be 697 ± 127 ng·h/mL. In addition, the DC50 on AR was 0.068 µM.

With `Cc1ncsc1-c1ccc([C@H](C)NC(=O)[C@@H]2C[C@@H](O)CN2C(=O)[C@@H](NC(=O)COCCCCOc2ccc(-c3ncc(N4C(=S)N(c5ccc(C#N)c(C(F)(F)F)c5F)C(=O)C4(C)C)cc3F)cc2F)C(C)(C)C)cc1` [Compound A110], the “eAUC0.5-2 h” value in data set [2] turned out to be 1098 ± 208 ng·h/mL. At AR, this compound registered a DC50 of 0.0564 µM.

As for `Cc1ncsc1-c1ccc(CNC(=O)[C@@H]2C[C@@H](O)CN2C(=O)[C@@H](N(C)C(=O)COCCCCOc2ccc(-c3ccc(N4C(=S)N(c5ccc(C#N)c(C(F)(F)F)c5F)C(=O)C4(C)C)cn3)cc2)C(C)(C)C)cc1` [Compound A66], in data set [2], the “eAUC0.5-2 h” value turned out to be 525 ± 106 ng·h/mL. The compound also showed a DC50 on AR of 0.213 µM.

`Cc1ncsc1-c1ccc(CNC(=O)[C@@H]2C[C@@H](O)CN2C(=O)[C@@H](NC(=O)COCCCCOc2ccc(-c3ncc(N4C(=S)N(c5ccc(C#N)c(C(F)(F)F)c5F)C(=O)C4(C)C)cc3F)cc2C#N)C(C)(C)C)cc1` [Compound A78]: in data set [2], the “eAUC0.5-2 h” value is 187 ± 66 ng·h/mL. On AR, this compound gave a DC50 of 0.0574 µM.

Take `Cc1ncsc1-c1ccc(CNC(=O)[C@@H]2C[C@@H](O)CN2C(=O)[C@@H](NC(=O)COCCCCOc2c(F)cc(-c3ncc(N4C(=S)N(c5ccc(C#N)c(C(F)(F)F)c5F)C(=O)C4(C)C)cc3C(F)(F)F)cc2F)C(C)(C)C)cc1` [Compound A79]: the “eAUC0.5-2 h” value in data set [2] amounted to 950 ± 114 ng·h/mL. This compound yielded a DC50 at AR of 0.129 µM.

For `CC1(C)C(=O)N(c2ccc(C#N)c(C(F)(F)F)c2F)C(=S)N1c1ccc(-c2ccc(OCCNC(=O)COc3cccc4c3C(=O)N(C3CCC(=O)NC3=O)C4=O)c(C#N)c2)nc1` (centres unmarked) [Compound A36], in data set [2], the “eAUC0.5-2 h” value was determined as 29 ± 12 ng·h/mL. At AR, this compound displayed a DC50 of 0.093 µM.

For `Cc1ncsc1-c1ccc([C@H](C)NC(=O)[C@@H]2C[C@@H](O)CN2C(=O)[C@@H](NC(=O)COCCCCCOc2ccc(-c3ncc(N4C(=S)N(c5ccc(C#N)c(C(F)(F)F)c5F)C(=O)C4(C)C)cc3F)cc2F)C(C)(C)C)cc1` [Compound A112], the “eAUC0.5-2 h” value in data set [2] was determined as 383 ± 165 ng·h/mL. Moreover, the DC50 at AR was determined as 0.153 µM.

For the compound `CC1(C)C(=O)N(c2ccc(C#N)c(C(F)(F)F)c2F)C(=S)N1c1ccc(-c2ccc(OCCNC(=O)COc3cccc4c3C(=O)N(C3CCC(=O)NC3=O)C4=O)c(F)c2)nc1` (centres unmarked) [Compound A35], the “eAUC0.5-2 h” value in data set [2] was found to be 71 ± 51 ng·h/mL. The compound further displayed a DC50 on AR of 0.117 µM.
